# Laboratory results published in PMC10101151 (Bioorganic & medicinal chemistry letters, 2022).
# Key:
# [1] = tested on: P. aeruginosa AR-0257; assay: colistin MIC in absence or presence of RMA; format: cell-based; conditions: for fold reduction of colistin MIC: compound at 1 μg/mL, AR-0257
# [2] = tested on: 8 different MDR Gram-negative bacteria; assay: colistin MIC across the panel of strains; format: cell-based; conditions: for Colistin MIC in the presence of compound, strains that contain the mcr genes: compound at 1 μg/mL
# [3] = tested on: P. aeruginosa AR-0239; assay: colistin MIC in absence or presence of RMA; format: cell-based; conditions: for fold reduction of colistin MIC: compound at 1 μg/mL, AR-0239
# [4] = tested on: mitochondria; conditions: in vitro and in mice for 6p; cited from earlier work
# [5] = tested on: S. Typhimurium AR-0635; assay: colistin MIC in absence or presence of RMA; format: cell-based, Salmonella Typhimurium; conditions: colistin alone; mcr-4
# [6] = tested on: K. pneumoniae AR-0497; assay: colistin MIC in absence or presence of RMA; format: cell-based; conditions: colistin alone; mcr-1
# [7] = tested on: S. Typhimurium AR-0539; assay: colistin MIC in absence or presence of RMA; format: cell-based, Salmonella Typhimurium; conditions: colistin alone; mcr-3
# [8] = tested on: A. baumannii AR-0310; assay: colistin MIC in absence or presence of RMA; format: cell-based; conditions: colistin alone
# [9] = tested on: E. coli AR-0538; assay: colistin MIC in absence or presence of RMA; format: cell-based; conditions: colistin alone; mcr-2
# [10] = tested on: E. coli AR-0493; assay: colistin MIC in absence or presence of RMA; format: cell-based; conditions: colistin alone; mcr-1
compound,measurement,setting,value
Clc1cccc(Nc2nc3nonc3nc2Nc2cccc(Cl)c2)c1 [5l],fold reduction of colistin MIC,[1],4 folds
same,"Colistin MIC in the presence of compound, strains that contain the mcr genes",[2],1 to 2 µg/mL
same,fold reduction of colistin MIC,[3],4 folds
Oc1nc2nonc2nc1Nc1ccc(OC(F)(F)F)cc1 [6p],mitochondrial uncoupler activity,[4],one of the most potent uncouplers
FC(F)(F)Oc1ccc(Nc2nc3nonc3nc2Nc2ccc(OC(F)(F)F)cc2)cc1 [5p],mitochondrial uncoupler activity,[4],poor uncoupler
Colistin,Colistin MIC,[5],32 µg/mL
same,Colistin MIC,[6],8 µg/mL
same,Colistin MIC,[1]; colistin alone,8 µg/mL
same,Colistin MIC,[7],8 µg/mL
same,Colistin MIC,[8],32 µg/mL
same,Colistin MIC,[9],8 µg/mL
same,"Colistin MIC, range over all strains","[2]; colistin alone, 8 strains",4 to 32 µg/mL
same,Colistin MIC,[3]; colistin alone,4 µg/mL
same,Colistin MIC,[10],8 µg/mL
Clc1ccc(Nc2nc3nonc3nc2Nc2ccc(Cl)cc2)cc1 [5m],fold reduction of colistin MIC,[1],4 folds
same,"Colistin MIC in the presence of compound, strains that contain the mcr genes",[2],1 to 2 µg/mL
same,fold reduction of colistin MIC,[3],4 folds
